Measured values: patent US11591604B2, “Gene expression in Bacteroides” (Massachusetts Institute of Technology, priority 2015, dated 2023)

System: NanoLuc
Assay: NanoLuc luciferase reporter expression from constitutive promoters and RBSs integrated with pNBU2
Type: cell-based, B. thetaiotaomicron
Conditions: RBS combined with promoter PBT1311, NanoLuc reporter, three biological replicates
Source text: FIGS. 1A-1G. Genetic parts to control expression in B. thetaiotaomicron. (FIG. 1A) The ranges of gene expression are shown for the different gene regulation systems provided herein. (FIG. 1B) IntN2 catalyzes stable integration of pNBU2-based expression constructs into one of two attBT2 sites in the B. thetaiotaomicron genome. The two attBT2 sites (attBT2-1 at nucleotide (nt) 6,217,227 and attBT2-2 at nt 6,138,320) are in the 3′ ends of tRNA^Ser genes (BT_t71 and BT_t70, respectively). (FIG. 1C) Constitutive promoters and ribosome binding sites for the construction of gene expression libraries. The putative −33 and −7 regions of the PBT1311 promoter, the Shine-Delgarno sequence, and the start codon are indicated by black boxes. Numbers below the black boxes represent nucleotide locations relative the PBT1311 transcription start site. The 26 nt sequences introduced in the PAM promoters are shown (see also FIGS. 6A-6B). Numbers at the edges of the boxes indicate the PBT1311 nucleotides replaced or the insertion site within the promoter. The location of residues randomized in the rpiL* RBS library are indicated with gray arrows (for library A: nt −14, −13, −12; for library B: nt −21, −18, −15; and for library C: nt −17, −16, −11; nt numbering is relative to the translation start site). (FIG. 1D) Activity was measured for a set of constitutive promoters and their cognate RBSs. Furthermore, a set of constitutive promoters (PBT1311, PAM1, PAM2, PAM3, PAM4) was combined with RBSs of varying strengths. Gene expression was measured using a luciferase reporter (NanoLuc). (FIG. 1E) Three large RBS libraries were constructed and combined with promoter PBT1311 to span 10^3-fold in gene expression. For reference, the parent rpiL* RBS is indicated with a black arrow. For D and E, error bars represent the standard deviation of three independent biological replicates made on separate days. (FIG. 1F) The strength of each RBS was compared to the predicted free energy of folding for the mRNA (ΔGfold,). (FIG. 1G) Strong (SEQ ID NO: 210) and weak (SEQ ID NO: 211) consensus sequences for the rpiL* −21 to −11 RBS region targeted by mutagenesis (residue locations are stated relative to the translation start site) are provided. Frequency logos were generated for the 11 strongest and 11 weakest RBSs by comparing the frequency of each nucleotide at each position in that group with the frequency of that nucleotide in that position in the full library. Position −20 and −19 were not randomized and are thus are not shown in the frequency logos.
All genetic parts in this study were characterized using the integration vector pNBU2 to ensure genetic stability of the constructs (FIG. 1B). The pNBU2 plasmid encodes the intN2 tyrosine integrase, which mediates sequence-specific recombination between the attN site of pNBU2 and one of two attBT sites located in the 3′ ends of the two tRNA^Ser genes, BT_t70 and BT_t71, on the B. thetaiotaomicron chromosome (FIG. 1B). Insertion of the pNBU2 plasmid inactivates the tRNA^Ser gene, and simultaneous insertion into both BT_t70 and BT_t71 is unlikely due to the essentiality of tRNA^Ser. pNBU2-based vectors have been used for single-copy complementation in B. thetaiotaomicron in in vitro studies (Koropatkin N M et al. Nat. Rev. Microbiol. 10:323-35, 2012) and in vivo mouse models (Martens E C et al. Cell Host Microbe 4:447-57, 2008).
B. thetaiotaomicron genetic parts were characterized with NanoLuc luciferase (Hall M P et al. ACS Chem. Biol. 7:1848-1857, 2012), which is a small (19 kDa) modified shrimp luciferase. Efforts to use members of the green fluorescent protein family and a FMN-based fluorescent reporter were not successful. NanoLuc oxidizes the exogenously-added substrate furimazine to produce glow-type bioluminescence (Emax=460 nm) with a signal half-life of 2 hr. […]

Substance	Average Luminescence (RLU/CFU)
A39: RBS, SEQ ID NO: 116 (DNA TCCCGCATTTTAAAATAAAATAAATTATTGTTTTATTTAAACGAAT; chemistry not fully specified)	0.003302 RLU/CFU
A40: RBS, SEQ ID NO: 118 (DNA TCCCGCATTTTAAAATAAAATAAATTATTTGTTTATTTAAACGAAT; chemistry not fully specified)	0.002992 RLU/CFU
A41: RBS, SEQ ID NO: 123 (DNA TCCCGCATTTTAAAATAAAATAAATTATTATTTTATTTAAACGAAT; chemistry not fully specified)	0.002417 RLU/CFU
A42: RBS, SEQ ID NO: 130 (DNA TCCCGCATTTTAAAATAAAATAAATTATTGGTTTACTTAAACGAAT; chemistry not fully specified)	0.001478 RLU/CFU
A43: RBS, SEQ ID NO: 131 (DNA TCCCGCATTTTAAAATAAAATAAATTATTCGTTTAATTAAACGAAT; chemistry not fully specified)	0.001461 RLU/CFU
A44: RBS, SEQ ID NO: 135 (DNA TCCCGCATTTTAAAATAAAATAAATTATTCGTTTATTTAAACGAAT; chemistry not fully specified)	0.0006478 RLU/CFU
A45: RBS, SEQ ID NO: 137 (DNA TCCCGCATTTTAAAATAAAATAAATTATTCGTTTACTTAAACGAAT; chemistry not fully specified)	0.0005331 RLU/CFU
B1: RBS, SEQ ID NO: 1 (DNA TCCCGCATTTTAAAATAAAATAAATTATTCGTTTAGTTAAACGAAT; chemistry not fully specified)	0.09025 RLU/CFU
B2: RBS, SEQ ID NO: 2 (DNA TCCCGCATTTTAAAATAAAATAAATGATATAATTAATTAAACGAAT; chemistry not fully specified)	0.06325 RLU/CFU
B3: RBS, SEQ ID NO: 3 (DNA TCCCGCATTTTAAAATAAAATAAATAATATAATTAATTAAACGAAT; chemistry not fully specified)	0.06083 RLU/CFU
B4: RBS, SEQ ID NO: 4 (DNA TCCCGCATTTTAAAATAAAATAAATAATTTAATTAATTAAACGAAT; chemistry not fully specified)	0.05153 RLU/CFU
B5: RBS, SEQ ID NO: 5 (DNA TCCCGCATTTTAAAATAAAATAAATTATATAATTAATTAAACGAAT; chemistry not fully specified)	0.04825 RLU/CFU
B6: RBS, SEQ ID NO: 6 (DNA TCCCGCATTTTAAAATAAAATAAATAATATACTTAATTAAACGAAT; chemistry not fully specified)	0.04723 RLU/CFU
B7: RBS, SEQ ID NO: 8 (DNA TCCCGCATTTTAAAATAAAATAAATAATCTACTTAATTAAACGAAT; chemistry not fully specified)	0.04704 RLU/CFU
B8: RBS, SEQ ID NO: 9 (DNA TCCCGCATTTTAAAATAAAATAAATTATTTAATTAATTAAACGAAT; chemistry not fully specified)	0.04684 RLU/CFU
B9: RBS, SEQ ID NO: 10 (DNA TCCCGCATTTTAAAATAAAATAAATTATCTAATTAATTAAACGAAT; chemistry not fully specified)	0.04634 RLU/CFU
B10: RBS, SEQ ID NO: 12 (DNA TCCCGCATTTTAAAATAAAATAAATTATATATTTAATTAAACGAAT; chemistry not fully specified)	0.04421 RLU/CFU
B11: RBS, SEQ ID NO: 18 (DNA TCCCGCATTTTAAAATAAAATAAATAATGTAATTAATTAAACGAAT; chemistry not fully specified)	0.03308 RLU/CFU

Substance	Average Luminescence (RLU/CFU)
B12: RBS, SEQ ID NO: 22 (DNA TCCCGCATTTTAAAATAAAATAAATAATATATTTAATTAAACGAAT; chemistry not fully specified)	0.03108 RLU/CFU
B13: RBS, SEQ ID NO: 25 (DNA TCCCGCATTTTAAAATAAAATAAATGATTTAATTAATTAAACGAAT; chemistry not fully specified)	0.02746 RLU/CFU
B14: RBS, SEQ ID NO: 26 (DNA TCCCGCATTTTAAAATAAAATAAATTATCTATTTAATTAAACGAAT; chemistry not fully specified)	0.02715 RLU/CFU
B15: RBS, SEQ ID NO: 27 (DNA TCCCGCATTTTAAAATAAAATAAATGATTTACTTAATTAAACGAAT; chemistry not fully specified)	0.02695 RLU/CFU
B16: RBS, SEQ ID NO: 28 (DNA TCCCGCATTTTAAAATAAAATAAATTATATACTTAATTAAACGAAT; chemistry not fully specified)	0.02683 RLU/CFU
B17: RBS, SEQ ID NO: 30 (DNA TCCCGCATTTTAAAATAAAATAAATAATTTAGTTAATTAAACGAAT; chemistry not fully specified)	0.0259 RLU/CFU
B18: RBS, SEQ ID NO: 35 (DNA TCCCGCATTTTAAAATAAAATAAATAATGTAGTTAATTAAACGAAT; chemistry not fully specified)	0.02291 RLU/CFU
B19: RBS, SEQ ID NO: 42 (DNA TCCCGCATTTTAAAATAAAATAAATTATGTATTTAATTAAACGAAT; chemistry not fully specified)	0.02048 RLU/CFU
B20: RBS, SEQ ID NO: 52 (DNA TCCCGCATTTTAAAATAAAATAAATGATCTAATTAATTAAACGAAT; chemistry not fully specified)	0.01676 RLU/CFU
B21: RBS, SEQ ID NO: 53 (DNA TCCCGCATTTTAAAATAAAATAAATGATATATTTAATTAAACGAAT; chemistry not fully specified)	0.01613 RLU/CFU
B22: RBS, SEQ ID NO: 55 (DNA TCCCGCATTTTAAAATAAAATAAATCATGTAATTAATTAAACGAAT; chemistry not fully specified)	0.01599 RLU/CFU
B23: RBS, SEQ ID NO: 61 (DNA TCCCGCATTTTAAAATAAAATAAATAATCTATTTAATTAAACGAAT; chemistry not fully specified)	0.01464 RLU/CFU
B24: RBS, SEQ ID NO: 62 (DNA TCCCGCATTTTAAAATAAAATAAATCATTTATTTAATTAAACGAAT; chemistry not fully specified)	0.01427 RLU/CFU
B25: RBS, SEQ ID NO: 63 (DNA TCCCGCATTTTAAAATAAAATAAATGATTTAGTTAATTAAACGAAT; chemistry not fully specified)	0.01415 RLU/CFU
B26: RBS, SEQ ID NO: 68 (DNA TCCCGCATTTTAAAATAAAATAAATTATTTAGTTAATTAAACGAAT; chemistry not fully specified)	0.01271 RLU/CFU
B27: RBS, SEQ ID NO: 74 (DNA TCCCGCATTTTAAAATAAAATAAATGATATAGTTAATTAAACGAAT; chemistry not fully specified)	0.009815 RLU/CFU
B28: RBS, SEQ ID NO: 77 (DNA TCCCGCATTTTAAAATAAAATAAATTATGTAGTTAATTAAACGAAT; chemistry not fully specified)	0.009593 RLU/CFU
B29: RBS, SEQ ID NO: 80 (DNA TCCCGCATTTTAAAATAAAATAAATTATATAGTTAATTAAACGAAT; chemistry not fully specified)	0.009478 RLU/CFU

Same assay, conditions: set of 8 RBSs, under control of PBT1311, NanoLuc reporter

Substance	Expression Level (RLU/CFU)
B1: RBS, SEQ ID NO: 1 (DNA TCCCGCATTTTAAAATAAAATAAATTATTCGTTTAGTTAAACGAAT; chemistry not fully specified)	9.02E-02 RLU/CFU
